Patent publication US10336762B2 (priority 2017, dated 2019)
Like-named read-outs stand apart in the source and are kept apart here.

Assays:
[1] = tested on: TNFα; experiment: cells; assay type: cell-based, human; settings: LPS-stimulated human monocytes, read-out: EC50 TNF
[2] = biological target: IRAK4 enzyme (Homo sapiens (Human), UniProt Q9NWZ3); experiment: biochemical; assay type: biochemical; settings: IRAK4 enzyme, 500 μM ATP
[3] = Homo sapiens, Monocyte, TNFα content
[4] = Homo sapiens, Monocyte, TNFα by TR-FRET

Chain of IRAK4 enzyme (Q9NWZ3 whole entry): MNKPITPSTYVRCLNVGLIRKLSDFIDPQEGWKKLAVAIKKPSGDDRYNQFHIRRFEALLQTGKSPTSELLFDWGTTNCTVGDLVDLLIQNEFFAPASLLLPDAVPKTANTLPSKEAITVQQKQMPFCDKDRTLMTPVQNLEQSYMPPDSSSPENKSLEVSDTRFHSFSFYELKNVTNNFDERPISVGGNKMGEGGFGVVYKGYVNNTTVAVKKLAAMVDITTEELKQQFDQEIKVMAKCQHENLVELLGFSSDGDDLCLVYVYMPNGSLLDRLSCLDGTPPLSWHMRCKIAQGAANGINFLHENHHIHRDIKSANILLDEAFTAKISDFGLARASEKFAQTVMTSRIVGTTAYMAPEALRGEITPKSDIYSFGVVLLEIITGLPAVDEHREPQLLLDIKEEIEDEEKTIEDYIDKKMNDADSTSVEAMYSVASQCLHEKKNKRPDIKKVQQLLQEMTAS

CN1CCC[C@H](Nc2cc(-c3ccc4cc(C#N)cnn34)ncc2C(=O)NC[C@@H](F)C(C)(C)O)C1 [Example 260, 6-(3-cyanopyrrolo[1,2-b]pyridazin-7-yl)-N-((R)-2-fluoro-3-hydroxy-3-methylbutyl)-4-(((S)-1-methylpiperidin-3-yl)amino)nicotinamide]
EC50 [1, 3]: 0.165 µM
IC50 ([2]; TR-FRET): 0.008 µM

CC(C)(O)[C@H](F)CNC(=O)c1cnc(-c2ccc3cc(C#N)cnn23)cc1NC[C@@H]1CCN1CC(F)(F)F [Example 891, 6-(3-cyanopyrrolo[1,2-b]pyridazin-7-yl)-N-((R)-2-fluoro-3-hydroxy-3-methylbutyl)-4-((((S)-1-(2,2,2-trifluoroethyl)azetidin-2-yl)methyl)amino)nicotinamide]
EC50 [1, 4]: 0.249 µM
IC50 ([2]; TR-FRET): 0.004 µM

CN1CCOc2cc(Nc3cc(-c4ccc5cc(C#N)cnn45)ncc3C(=O)NC[C@@H](F)C(C)(C)O)cnc21 [Example 856, (R)-6-(3-cyanopyrrolo[1,2-b]pyridazin-7-yl)-N-(2-fluoro-3-hydroxy-3-methylbutyl)-4-((4-methyl-3,4-dihydro-2H-pyrido[3,2-b][1,4]oxazin-7-yl)amino)nicotinamide]
EC50 [1, 4]: 0.024 µM
IC50 ([2]; TR-FRET): 0.001 µM

Cc1nnc(N[C@H]2CC[C@H](Nc3cc(-c4ccc5cc(C#N)cnn45)ncc3C(=O)NC[C@@H](F)C(C)(C)O)CC2)o1 [Example 269, 6-(3-cyanopyrrolo[1,2-b]pyridazin-7-yl)-N-((R)-2-fluoro-3-hydroxy-3-methylbutyl)-4-(((1R,4R)-4-((5-methyl-1,3,4-oxadiazol-2-yl)amino)cyclohexyl)amino)nicotinamide]
EC50 [1, 3]: 0.059 µM
IC50 ([2]; TR-FRET): 0.001 µM

CC(C)Nc1cc(-c2ccc3cc(C#N)cnn23)ncc1C(=O)NS(C)(=O)=O [Example 34, 6-(3-cyanopyrrolo[1,2-b]pyridazin-7-yl)-4-(isopropylamino)-N-(methylsulfonyl) nicotinamide]
EC50 [1, 3]: > 10 µM
IC50 ([2]; TR-FRET): 9.38 µM

CC(C)(O)[C@H](F)CNC(=O)c1cnc(-c2ccc3cc(C#N)cnn23)cc1N[C@H]1CC[C@H](c2ccon2)CC1 [Example 777, 6-(3-cyanopyrrolo[1,2-b]pyridazin-7-yl)-N-((R)-2-fluoro-3-hydroxy-3-methylbutyl)-4-(((1r,4R)-4-(isoxazol-3-yl)cyclohexyl)amino)nicotinamide]
EC50 [1, 3]: 0.015 µM
IC50 ([2]; TR-FRET (HTRF)): < 0.001 µM

CC(C)(O)[C@H](F)CNC(=O)c1cnc(-c2ccc3cc(C#N)cnn23)cc1N[C@H]1CC[C@H](NC(=O)C2CCOCC2)CC1 [Example 294, 6-(3-cyanopyrrolo[1,2-b]pyridazin-7-yl)-N-((R)-2-fluoro-3-hydroxy-3-methylbutyl)-4-(((1r,4R)-4-(tetrahydro-2H-pyran-4-carboxamido)cyclohexyl)amino)nicotinamide]
EC50 [1, 3]: 0.735 µM
IC50 ([2]; TR-FRET): 0.003 µM

CC(C)(O)[C@H](F)CNC(=O)c1cnc(-c2ccc3cc(C#N)cnn23)cc1N[C@]1(C)CC[C@H](O)CC1 [Example 432, 6-(3-cyanopyrrolo[1,2-b]pyridazin-7-yl)-N-((R)-2-fluoro-3-hydroxy-3-methylbutyl)-4-(((1s,4S)-4-hydroxy-1-methylcyclohexyl)amino) nicotinamide]
EC50 [1, 3]: 0.037 µM
IC50 ([2]; TR-FRET (HTRF)): < 0.001 µM

COCC(=O)N1CCC(Nc2cc(-c3ccc4cc(C#N)cnn34)ncc2C(=O)NC[C@@H](F)C(C)(C)O)CC1 [Example 328, (R)-6-(3-cyanopyrrolo[1,2-b]pyridazin-7-yl)-N-(2-fluoro-3-hydroxy-3-methylbutyl)-4-((1-(2-methoxyacetyl)piperidin-4-yl)amino)nicotinamide]
EC50 [1, 3]: 0.3 µM
IC50 ([2]; TR-FRET): 0.006 µM

CC(C)Nc1cc(-c2ccc3cc(C#N)cnn23)ncc1C(=O)NC1CCN(C2COC2)CC1 [Example 86, 6-(3-cyanopyrrolo[1,2-b]pyridazin-7-yl)-4-(isopropylamino)-N-(1-(oxetan-3-yl)piperidin-4-yl) nicotinamide]
EC50 [1, 3]: 0.321 µM
IC50 ([2]; TR-FRET): 0.004 µM

CC(=O)NCC12CC(Nc3cc(-c4ccc5cc(C#N)cnn45)ncc3C(=O)NC[C@@H](F)C(C)(C)O)(C1)C2 [Example 546, (R)-4-((3-(acetamidomethyl)bicyclo[1.1.1]pentan-1-yl)amino)-6-(3-cyano-pyrrolo[1,2-b]pyridazin-7-yl)-N-(2-fluoro-3-hydroxy-3-methylbutyl) nicotinamide]
EC50 [1, 3]: 0.09 µM
IC50 ([2]; TR-FRET (HTRF)): 0.001 µM

CC(C)(O)[C@H](F)CNC(=O)c1cnc(-c2ccc3cc(C#N)cnn23)cc1Nc1ccc(F)cn1 [Example 687, (R)-6-(3-cyanopyrrolo[1,2-b]pyridazin-7-yl)-N-(2-fluoro-3-hydroxy-3-methylbutyl)-4-((5-fluoro-pyridin-2-yl)amino) nicotinamide]
EC50 [1, 3]: 0.042 µM
IC50 ([2]; TR-FRET (HTRF)): < 0.001 µM

CC(C)(O)[C@H](F)CNC(=O)c1cnc(-c2ccc3cc(C#N)cnn23)cc1NC1C2CCC1CNC2 (single isomer, unassigned) [Example 28]
EC50 ([1]; TNFα content): 0.109 µM
IC50 ([2]; TR-FRET): < 0.001 µM

CC(C)(O)[C@H](F)CNC(=O)c1cnc(-c2ccc3cc(C#N)cnn23)cc1NC12CCC(C(=O)NC3CC3)(CC1)CC2 [Example 406, (R)-6-(3-cyanopyrrolo[1,2-b]pyridazin-7-yl)-4-((4-(cyclopropylcarbamoyl)bicyclo[2.2.2]octan-1-yl)amino)-N-(2-fluoro-3-hydroxy-3-methylbutyl) nicotinamide]
EC50 [1, 3]: 0.033 µM
IC50 ([2]; TR-FRET (HTRF)): 0.001 µM

CC(C)(O)[C@H](F)CNC(=O)c1cnc(-c2ccc3cc(C#N)cnn23)cc1NC1CCC(S(C)(=O)=O)CC1 (stereo partly drawn) [Example 523, (R)-6-(3-cyanopyrrolo[1,2-b]pyridazin-7-yl)-N-(2-fluoro-3-hydroxy-3-methylbutyl)-4-((4-(methylsulfonyl)cyclohexyl)amino)nicotinamide]
EC50 [1, 3]: 0.412 µM
IC50 ([2]; TR-FRET (HTRF)): 0.014 µM

Cn1ccnc1CNC(=O)c1cnc(-c2ccc3cc(C#N)cnn23)cc1NC12CCC(O)(CC1)CC2 [Example 928, 6-(3-cyanopyrrolo[1,2-b]pyridazin-7-yl)-4-((4-hydroxybicyclo[2.2.2]octan-1-yl)amino)-N-((1-methyl-1H-imidazol-2-yl)methyl)nicotinamide]
EC50 [1, 4]: 0.071 µM
IC50 ([2]; TR-FRET): 0.001 µM

CN(C)C(=O)CNC(=O)c1cnc(-c2ccc3cc(C#N)cnn23)cc1NC12CCC(O)(CC1)CC2 [Example 333, 6-(3-cyanopyrrolo[1,2-b]pyridazin-7-yl)-N-(2-(dimethylamino)-2-oxo-ethyl)-4-((4-hydroxy-bicyclo[2.2.2]octan-1-yl)amino)nicotinamide]
EC50 [1, 3]: 0.087 µM
IC50 ([2]; TR-FRET): < 0.001 µM

CC(C)(O)[C@H](F)CNC(=O)c1cnc(-c2ccc3cc(C#N)cnn23)cc1Nc1cnc(C#N)nc1 [Example 596, (R)-4-((2-cyano-pyrimidin-5-yl)amino)-6-(3-cyanopyrrolo[1,2-b]pyridazin-7-yl)-N-(2-fluoro-3-hydroxy-3-methylbutyl) nicotinamide]
EC50 [1, 3]: > 10 µM
IC50 ([2]; TR-FRET (HTRF)): 0.003 µM

COC(C)(C)[C@H](F)CNC(=O)c1cnc(-c2ccc3cc(C#N)cnn23)cc1NC12CC(NC(C)=O)(C1)C2 [Example 495, (R)-4-((3-acetamidobicyclo[1.1.1]pentan-1-yl)amino)-6-(3-cyanopyrrolo[1,2-b]pyridazin-7-yl)-N-(2-fluoro-3-methoxy-3-methylbutyl)nicotinamide]
EC50 [1, 3]: 0.04 µM
IC50 ([2]; TR-FRET (HTRF)): < 0.001 µM

CC(C)(O)[C@H](F)CNC(=O)c1cnc(-c2ccc3cc(C#N)cnn23)cc1NC12CCC(C(=O)NC34CC(C3)C4)(CC1)CC2 [Example 410, (R)-4-((4-(bicyclo[1.1.1]pentan-1-ylcarbamoyl)bicyclo[2.2.2]octan-1-yl)amino)-6-(3-cyano-pyrrolo[1,2-b]pyridazin-7-yl)-N-(2-fluoro-3-hydroxy-3-methylbutyl) nicotinamide]
EC50 [1, 3]: 0.05 µM
IC50 ([2]; TR-FRET (HTRF)): 0.002 µM

COC(=O)N1CCN(c2ccc(Nc3cc(-c4ccc5cc(C#N)cnn45)ncc3C(=O)NC[C@@H](F)C(C)(C)O)cn2)CC1 [Example 870, (R)-methyl 4-(5-((2-(3-cyanopyrrolo[1,2-b]pyridazin-7-yl)-5-((2-fluoro-3-hydroxy-3-methylbutyl)carbamoyl)pyridin-4-yl)amino)pyridin-2-yl)piperazine-1-carboxylate]
EC50 [1, 4]: 0.081 µM
IC50 ([2]; TR-FRET): 0.001 µM

COC(=O)[C@@H](C)NC(=O)c1cnc(-c2ccc3cc(C#N)cnn23)cc1NC12CCC(O)(CC1)CC2 [Example 340, methyl (6-(3-cyano-pyrrolo[1,2-b]pyridazin-7-yl)-4-((4-hydroxy-bicyclo[2.2.2]octan-1-yl)amino)nicotinoyl)-D-alaninate]
EC50 [1, 3]: 0.139 µM
IC50 ([2]; TR-FRET): 0.001 µM

CC(C)(O)[C@H](F)CNC(=O)c1cnc(-c2ccc3cc(C#N)cnn23)cc1NCC1CNC1 [Example 905, (R)-4-((azetidin-3-yl-methyl)amino)-6-(3-cyanopyrrolo[1,2-b]pyridazin-7-yl)-N-(2-fluoro-3-hydroxy-3-methylbutyl)nicotinamide]
EC50 [1, 4]: > 10 µM
IC50 ([2]; TR-FRET): 0.015 µM

COC(=O)NC[C@H]1CC[C@H](Nc2cc(-c3ccc4cc(C#N)cnn34)ncc2C(=O)NC[C@@H](F)C(C)(C)O)CC1 [Example 556, methyl (((1R,4r)-4-((2-(3-cyanopyrrolo[1,2-b]pyridazin-7-yl)-5-(((R)-2-fluoro-3-hydroxy-3-methylbutyl)carbamoyl)pyridin-4-yl)amino)cyclo-hexyl)methyl)carbamate]
EC50 [1, 3]: 0.018 µM
IC50 ([2]; TR-FRET (HTRF)): 0.001 µM

CC(C)(O)[C@H](F)CNC(=O)c1cnc(-c2ccc3cc(C#N)cnn23)cc1N[C@H]1CC[C@H](CN)CC1 [Example 558, 4-(((1r,4R)-4-(amino-methyl)cyclohexyl)amino)-6-(3-cyano-pyrrolo[1,2-b]pyridazin-7-yl)-N-((R)-2-fluoro-3-hydroxy-3-methylbutyl) nicotinamide]
EC50 [1, 3]: 0.19 µM
IC50 ([2]; TR-FRET (HTRF)): < 0.001 µM

CC(C)(O)[C@H](F)CNC(=O)c1cnc(-c2ccc3cc(C#N)cnn23)cc1Nc1cnc(-c2cnco2)nc1 [Example 641, (R)-6-(3-cyanopyrrolo[1,2-b]pyridazin-7-yl)-N-(2-fluoro-3-hydroxy-3-methylbutyl)-4-((2-(oxazol-5-yl)pyrimidin-5-yl)amino)nicotinamide]
EC50 [1, 3]: 0.021 µM
IC50 ([2]; TR-FRET (HTRF)): < 0.001 µM
